Assay results taken from patent US20220338504A1 (priority 2017, published 2022).
Where two headings read alike, the source gives them in different places. Marks after values point to notes of the source that are not given here.

How the values were obtained:
C. perfringens [1] = format: in vivo, broilers (male Ross×Ross chicks); conditions: Virginiamycin 20 g/ton, formulated yeast 0.5 lb/ton, ground pepper 0.3 lb/ton, combination 0.3 + 0.5 lb/ton
C. perfringens [2] = format: in vivo, broilers (male Ross×Ross chicks); conditions: 20 g/ton
[3] = test system: E. maxima and C. perfringens; format: in vivo, broilers (male Cobb×Cobb chicks); conditions: challenged, BMD 50.0 g/ton, encapsulated ground pepper 300 g/ton
[4] = test system: E. maxima and C. perfringens; format: in vivo, broilers (male Cobb×Cobb chicks)
[5] = test system: E. maxima and C. perfringens; format: in vivo, broilers (male Cobb×Cobb chicks); remark: listed apart in the source
[6] = test system: E. maxima and C. perfringens; format: in vivo, broilers (male Cobb×Cobb chicks); remark: listed apart in the source
[7] = test system: E. maxima and C. perfringens; format: in vivo, broilers (male Cobb×Cobb chicks); remark: listed apart in the source
[8] = test system: Clostridium perfringens strain #6 (with coccidia / E. maxima); format: in vivo, broilers (male Ross×Ross chicks)
[9] = 0-21 d, challenged, BMD 50.0 g/ton, combination 0.30 lb/ton + 0.5 lb/ton + 3 × 10^5 cfu/g
[10] = 0-28 d, challenged, BMD 50.0 g/ton, combination 0.30 lb/ton + 0.5 lb/ton + 3 × 10^5 cfu/g
[11] = 14-21 d, challenged, BMD 50.0 g/ton, combination 0.30 lb/ton + 0.5 lb/ton + 3 × 10^5 cfu/g
[12] = 14-28 d, challenged, BMD 50.0 g/ton, combination 0.30 lb/ton + 0.5 lb/ton + 3 × 10^5 cfu/g
[13] = 0-21 d, challenged, BMD 50.0 g/ton, combination 4.0 lb/ton + 3 × 10^5 cfu/g
[14] = 0-28 d, challenged, BMD 50.0 g/ton, combination 4.0 lb/ton + 3 × 10^5 cfu/g
[15] = 14-21 d, challenged, BMD 50.0 g/ton, combination 4.0 lb/ton + 3 × 10^5 cfu/g
[16] = 14-28 d, challenged, BMD 50.0 g/ton, combination 4.0 lb/ton + 3 × 10^5 cfu/g
[17] = 0-21 d, challenged, BMD 50.0 g/ton, combination 0.3 lb/ton + 3 × 10^5 cfu/g
[18] = 0-28 d, challenged, BMD 50.0 g/ton, combination 0.3 lb/ton + 3 × 10^5 cfu/g
[19] = 14-21 d, challenged, BMD 50.0 g/ton, combination 0.3 lb/ton + 3 × 10^5 cfu/g
[20] = 14-28 d, challenged, BMD 50.0 g/ton, combination 0.3 lb/ton + 3 × 10^5 cfu/g
[21] = 0-21 d, challenged, BMD 50.0 g/ton, combination 0.5 lb/ton + 3 × 10^5 cfu/g
[22] = 0-28 d, challenged, BMD 50.0 g/ton, combination 0.5 lb/ton + 3 × 10^5 cfu/g
[23] = 14-21 d, challenged, BMD 50.0 g/ton, combination 0.5 lb/ton + 3 × 10^5 cfu/g
[24] = 14-28 d, challenged, BMD 50.0 g/ton, combination 0.5 lb/ton + 3 × 10^5 cfu/g

Virginiamycin
Body weight gain (C. perfringens [1]; 15 d): 0.38 kg | Feed Conversion (C. perfringens [1]; 15 d): 1.32^xy | Feed consumption (C. perfringens [1]; 15 d): 0.44^ab Kg | Body weight gain (C. perfringens [1]; 35 d): 1.57^xy Kg | Feed Conversion (C. perfringens [1]; 35 d): 1.73 | Feed consumption (C. perfringens [1]; 35 d): 2.62 kg | Body weight gain (C. perfringens [1]; 42 d): 2.17 kg | Feed Conversion (C. perfringens [1]; 42 d): 1.76 | Feed consumption (C. perfringens [1]; 42 d): 3.70 kg | Necrotic enteritis related mortality, % (C. perfringens [1]): 3.50% | Total Mortality % (C. perfringens [1]): 0.50% | Total Mortality % (C. perfringens [2]): 5.36% | Body weight gain (C. perfringens [2]; 15 d): 0.33 kg | Feed Conversion (C. perfringens [2]; 15 d): 1.33^b | Feed consumption (C. perfringens [2]; 15 d): 0.39 kg | Body weight gain (C. perfringens [2]; 35 d): 1.10^ab Kg | Feed Conversion (C. perfringens [2]; 35 d): 1.62^abc | Feed consumption (C. perfringens [2]; 35 d): 1.73^x Kg | Body weight gain (C. perfringens [2]; 42 d): 2.27 kg | Feed Conversion (C. perfringens [2]; 42 d): 1.74^abc | Feed consumption (C. perfringens [2]; 42 d): 3.90^xy Kg

bacitracin methylene disalycilate [BMD]
Body weight gain ([3]; 0-21 d): 0.44 kg | Feed Conversion ([3]; 0-21 d): 1.79^ab | Feed consumption ([3]; 0-21 d): 0.79 kg | Body weight gain ([3]; 0-28 d): 0.65 kg | Feed Conversion ([3]; 0-28 d): 1.88^b | Feed consumption ([3]; 0-28 d): 1.22 kg | Body weight gain ([3]; 14-21 d): 0.16^b Kg | Feed Conversion ([3]; 14-21 d): 2.56^b | Feed consumption ([3]; 14-21 d): 0.41 kg | Body weight gain ([3]; 14-28 d): 0.37^ab Kg | Feed Conversion ([3]; 14-28 d): 2.58^b | Feed consumption ([3]; 14-28 d): 0.95 kg | Necrotic enteritis lesion score ([3]; DOT 21, 0 to 3 score, 0 normal, 3 most severe): 1.1^b | Necrotic enteritis related mortality, % [3]: 28.1^b % | Body weight gain [4, 9]: 0.52^ab Kg | Feed Conversion [4, 9]: 1.81^a | Feed consumption [4, 9]: 0.94 kg | Body weight gain [4, 10]: 0.77 kg | Feed Conversion [4, 10]: 1.78^b | Feed consumption [4, 10]: 1.37 kg | Body weight gain [4, 11]: 0.28^b Kg | Feed Conversion [4, 11]: 1.77^b | Feed consumption [4, 11]: 0.49 kg | Body weight gain [4, 12]: 0.53 kg | Feed Conversion [4, 12]: 1.73^bc | Feed consumption [4, 12]: 0.91 kg | Necrotic enteritis lesion score ([4]; DOT 21, 0 to 3 score, challenged, BMD 50.0 g/ton, combination 0.30 lb/ton + 0.5 lb/ton + 3 × 10^5 cfu/g): 0.5^b | Necrotic enteritis lesion scores compared to the challenged control birds ([4]; P<0.05): lower | Overall FCR compared to the challenged no feed additive control ([4]; P<0.05): reduced | necrotic enteritis related mortality compared to the challenged control birds ([4]; P<0.05): lower | Necrotic enteritis related mortality, % ([4]; challenged, BMD 50.0 g/ton, combination 0.30 lb/ton + 0.5 lb/ton + 3 × 10^5 cfu/g): 2^b % | FCR compared to the challenge control birds ([4]; d 14-28, P<0.05): decreased | Body weight gain compared to the challenged no feed additive control group ([4]; in vivo): not impacted | controlling C. perfringens disease challenge ([4]; in vivo): effective | Body weight gain [5, 13]: 0.57^a Kg | Feed Conversion [5, 13]: 1.53^c | Feed consumption [5, 13]: 0.87 kg | Body weight gain [5, 14]: 0.81^a Kg | Feed Conversion [5, 14]: 1.60^b | Feed consumption [5, 14]: 1.30 kg | Body weight gain [5, 15]: 0.32^ab Kg | Feed Conversion [5, 15]: 1.72^b | Feed consumption [5, 15]: 0.55 kg | Body weight gain [5, 16]: 0.56^a Kg | Feed Conversion [5, 16]: 1.75^b | Feed consumption [5, 16]: 0.98^a Kg | Necrotic enteritis lesion score ([5]; DOT 21, 0 to 3 score, challenged, BMD 50.0 g/ton, combination 4.0 lb/ton + 3 × 10^5 cfu/g): 0.79^b | Necrotic enteritis lesion score compared to the challenged control birds ([5]; P<0.05): lower | Necrotic enteritis related mortality, % ([5]; challenged, BMD 50.0 g/ton, combination 4.0 lb/ton + 3 × 10^5 cfu/g): 0.0^b % | overall FCR compared to the challenged control birds ([5]; d 0-28): reduced | overall body weight gain compared to the challenged control birds ([5]; d 0-28): increased | FCR compared to the challenge control birds ([5]; d 14-28, P<0.05): decreased | body weight gain compared to the challenge control birds ([5]; d 14-28, P<0.05): increased | controlling C. perfringens disease challenge ([5]; in vivo): effective | necrotic enteritis mortality compared to the challenged control group ([5]; in vivo): lower | Body weight gain [6, 17]: 0.66^a Kg | Feed Conversion [6, 17]: 1.62^ab | Feed consumption [6, 17]: 1.07 kg | Body weight gain [6, 18]: 0.92^ab Kg | Feed Conversion [6, 18]: 1.67^a | Feed consumption [6, 18]: 1.54 kg | Body weight gain [6, 19]: 0.30^b Kg | Feed Conversion [6, 19]: 1.95^b | Feed consumption [6, 19]: 0.58 kg | Body weight gain [6, 20]: 0.56^ab Kg | Feed Conversion [6, 20]: 1.93^b | Feed consumption [6, 20]: 1.08 kg | Necrotic enteritis lesion score ([6]; DOT 21, 0 to 3 score, challenged, BMD 50.0 g/ton, combination 0.3 lb/ton + 3 × 10^5 cfu/g): 0.50^b | Necrotic enteritis lesion score compared to the challenged control birds ([6]; P<0.05): lower | Necrotic enteritis related mortality, % ([6]; challenged, BMD 50.0 g/ton, combination 0.3 lb/ton + 3 × 10^5 cfu/g): 0.0% | overall body weight gain compared to the challenged control ([6]; d 0-28): increased | FCR compared to the challenge control birds ([6]; d 14-28, P<0.05): decreased | body weight gain compared to the challenge control birds ([6]; d 14-28, P<0.05): increased | controlling C. perfringens disease challenge ([6]; in vivo): effective | Body weight gain [7, 21]: 0.34^a Kg | Feed Conversion [7, 21]: 2.21^b | Feed consumption [7, 21]: 0.75 kg | Body weight gain [7, 22]: 0.57 kg | Feed Conversion [7, 22]: 2.08^b | Feed consumption [7, 22]: 1.19 kg | Body weight gain [7, 23]: 0.15^bc Kg | Feed Conversion [7, 23]: 2.30^b | Feed consumption [7, 23]: 0.34 kg | Body weight gain [7, 24]: 0.38^ab Kg | Feed Conversion [7, 24]: 2.05^b | Feed consumption [7, 24]: 0.78 kg | Necrotic enteritis lesion score ([7]; DOT 21, 0 to 3 score, challenged, BMD 50.0 g/ton, combination 0.5 lb/ton + 3 × 10^5 cfu/g): 0.3^c | Necrotic enteritis lesion score compared to the challenged control birds ([7]; P<0.05): lower | necrotic enteritis mortality compared to the challenged control group ([7]; P<0.05): decreased | Necrotic enteritis related mortality, % ([7]; challenged, BMD 50.0 g/ton, combination 0.5 lb/ton + 3 × 10^5 cfu/g): 3^b % | overall FCR compared to the challenged control birds ([7]; d 0-28, P<0.05): decreased | body weight gain compared to the challenge control birds ([7]; d 14-28): similar | FCR compared to the challenge control birds ([7]; d 14-28, P<0.05): decreased | controlling C. perfringens disease challenge ([7]; in vivo): effective | FCR compared to birds fed with no feed additive ([8]; 28 days of age, P<0.05): decreased | body weight gain compared to birds fed with no feed additive ([8]; 28 days of age, P<0.05): increased | Body weight gain compared to the control fed birds ([8]; 41 days of age, P<0.05): increased | FCR compared to the no feed additive control group ([8]; 41 days of age, P<0.05): decreased | Necrotic enteritis lesion score compared to the no feed additive control fed birds ([8]; in vivo): numerically reduced | controlling C. perfringens disease challenge ([8]; in vivo): effective | necrotic enteritis related mortality compared to the no feed additive control fed birds ([8]; in vivo): numerically reduced
